These results are taken from publication PMC10067601, “Identification of a peptide ligand for human ALDH3A1 through peptide phage display: Prediction and characterization of protein interaction sites and inhibition of ALDH3A1 enzymatic activity” (Frontiers in Molecular Biosciences, 2023).

The target in this experiment is T1, human recombinant ALDH3A1 (Homo sapiens, UniProt P30838).
T1 construct: 6xHis (C); made in house; host or cells: E. coli, with chaperone co-expression (pG-KJE8 plasmid)
T1 sequence (P30838 1-453): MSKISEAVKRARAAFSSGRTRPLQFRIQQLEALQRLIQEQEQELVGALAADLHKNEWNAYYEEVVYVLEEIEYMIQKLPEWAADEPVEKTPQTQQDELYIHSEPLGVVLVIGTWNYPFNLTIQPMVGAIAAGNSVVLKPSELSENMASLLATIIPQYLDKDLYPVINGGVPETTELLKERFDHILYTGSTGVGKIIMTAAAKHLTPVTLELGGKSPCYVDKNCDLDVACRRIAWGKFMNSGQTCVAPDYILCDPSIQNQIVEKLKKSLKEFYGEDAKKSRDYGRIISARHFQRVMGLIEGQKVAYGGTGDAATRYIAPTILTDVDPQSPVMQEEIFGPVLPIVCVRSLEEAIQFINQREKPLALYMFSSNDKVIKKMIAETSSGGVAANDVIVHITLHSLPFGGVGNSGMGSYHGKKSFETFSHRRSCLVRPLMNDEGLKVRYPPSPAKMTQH
As to the kind of experiment: ALDH3A1 enzymatic assay, benzaldehyde oxidation. Format: biochemical. The conditions noted are these: for Enzymatic activity, % of control (Mean%): 40 μM CB29; for Enzymatic activity, % of control (Mean%) / Enzymatic Activity, AVERAGE of triplicates: mean of n = 3. On the procedure: The ability of ALDH3A1 to oxidize benzaldehyde in the presence of P1 was estimated by monitoring the production of NADH as described earlier with minor modifications ([Voulgaridou et al., 2013]). Human recombinant ALDH3A1 was combined with P1 and diluted in Milli-Q water, at 1:1,000. The final reaction was placed in a 0.5 mL quartz cuvette containing 50 mM Tris-HCl pH 8.5, 50 mM 2-Mercaptoethanol, 1.5 mM […], 20 nM ALDH3A1, 20 μM P1, and 1 mM Benzaldehyde. The reaction was initiated by the addition of the benzaldehyde substrate and was monitored at 340 nm for 5 min using a spectrophotometer (Libra S22, Biochrom Ltd, Cambridge, United Kingdom). In the case of CB29, the final reaction contained 40 μM CB29. Enzymatic activity was calculated as dOD/dT∗molarextinctioncoeiffcient∗pathcorrection∗enzyme^′sconcentrationinfinalreaction where, dT = minutes, molar extinction coefficient = 6220 M^-1/cm, path correction = 1 cm.
All experiments were conducted in triplicates and presented as % of the control’s enzymatic activity. As a control, the final reaction contained the respective Milli-Q water volume without P1 or CB29.
At least three independent experiments were performed for each condition tested. The values are expressed as the mean ± standard deviation (SD). Statistical analysis was performed with Graph Pad Prism software (version 9.4.1) (Graph Pad Inc., La Jolla, CA, United States). For all assays, statistical differences between groups were evaluated either by Student’s t-test or ANOVA, for multiple comparisons, followed by Dunnett’s or Tukey’s test. A level of p < 0.01 was considered statistically significant.

Setting [1] is: 20 μM P1 (n = 4) or 40 μM CB29 (n = 3).

For the compound `CC(=O)Nc1ccc(Nc2ccc(S(C)(=O)=O)cc2[N+](=O)[O-])cc1` [CB29, reference compound], the “Enzymatic activity, % of control, AVERAGE of experiments” value (20 μM P1 (4 experiments) or 40 μM CB29 (3 experiments), 1 mM benzaldehyde, 20 nM ALDH3A1, pH 8.5, 340 nm, 5 min) was found to be 52.9548%. In addition, under setting [1], the “25% Percentile, % of control activity” value is recorded as 47.24; the “75% Percentile, % of control activity” value is on record as 56.68; the “Lower 95% CI of mean, % of control activity” value is 40.48; the “Maximum, % of control activity” value is listed as 56.68. Moreover, under setting [1], the “Mean, % of control activity” value came out at 52.95; the “Median, % of control activity” value was determined as 54.95; the “Minimum, % of control activity” value is listed as 47.24; the “Upper 95% CI of mean, % of control activity” value is on record as 65.43. For the same compound, the “Enzymatic activity, % of control (Mean%)” value (CB29 Exp1, 1 mM benzaldehyde, 20 nM ALDH3A1, pH 8.5, 340 nm) was 56.6779%. For the same compound, the “Enzymatic activity, % of control (Mean%)” value (CB29 Exp2, 1 mM benzaldehyde, 20 nM ALDH3A1, pH 8.5, 340 nm) amounted to 54.9455%. Also, the “Enzymatic activity, % of control (Mean%)” value (CB29 Exp3, 1 mM benzaldehyde, 20 nM ALDH3A1, pH 8.5, 340 nm) is 47.241%. In addition, for the setting “CB29 Exp1, 40 μM”, the “Enzymatic Activity, AVERAGE of triplicates” value (“Enzymatic Activity, AVERAGE” below) is 7.722 µmol/min/mg. The “Enzymatic Activity, AVERAGE” value (CB29 Exp2, 40 μM) turned out to be 6.9085 µmol/min/mg. Moreover, the “Enzymatic Activity, AVERAGE” value (CB29 Exp3, 40 μM) was determined as 7.406 µmol/min/mg. Further, for the setting “Dunnett's multiple comparisons, 20 μM P1 or 40 μM CB29”, the “95,00% CI of diff, control vs. compound” value is reported as 37,23 to 56,86. The “Mean Diff, control vs. compound” value (Dunnett's multiple comparisons, 20 μM P1 or 40 μM CB29, % of control activity) is on record as 47.05.
